Each structure is given as a SMILES string. Read-outs that look alike come from different tables or passages of the source.

Test in all cases: DSF 100 kinase selectivity screen;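 further: compound tested at 20 µM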
Format in all cases: binding

Test [1] addresses T1, ~100 representative kinases (Homo sapiens, UniProt O14733).
T1 construct: Recombinant protein kinase domains with a concentration of 2 μM
T1 sequence (O14733 1-419): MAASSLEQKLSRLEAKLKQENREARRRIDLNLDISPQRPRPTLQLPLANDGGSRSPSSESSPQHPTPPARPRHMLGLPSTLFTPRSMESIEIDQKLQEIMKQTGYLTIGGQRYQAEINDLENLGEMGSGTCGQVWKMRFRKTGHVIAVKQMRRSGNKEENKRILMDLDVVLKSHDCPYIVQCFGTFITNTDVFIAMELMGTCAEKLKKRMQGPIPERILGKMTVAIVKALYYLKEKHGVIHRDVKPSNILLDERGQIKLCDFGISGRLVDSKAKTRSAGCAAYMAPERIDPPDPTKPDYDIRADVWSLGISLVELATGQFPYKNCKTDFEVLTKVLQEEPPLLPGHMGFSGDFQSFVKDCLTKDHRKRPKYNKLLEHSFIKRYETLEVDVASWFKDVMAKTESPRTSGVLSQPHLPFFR
The conditions noted are these: protein MAP2K7; average of three replicates. An outline of the steps: (§1)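 Each kinase domain, at 2 μM, is mixed with 20 μM test compound and SYPRO Orange in Hepes (20 mM, pH 7.5) with 500 mM NaCl. Temperature is then raised at 3°C/min and fluorescence-monitored unfolding yields the melting temperature change, ΔTm in degrees Celsius.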

The target in test [2] is T2, ~100 representative kinases (Homo sapiens, UniProt P00519).
T2 construct: Recombinant protein kinase domains with a concentration of 2 μM
T2 sequence (P00519 whole entry, the tested form may be a part): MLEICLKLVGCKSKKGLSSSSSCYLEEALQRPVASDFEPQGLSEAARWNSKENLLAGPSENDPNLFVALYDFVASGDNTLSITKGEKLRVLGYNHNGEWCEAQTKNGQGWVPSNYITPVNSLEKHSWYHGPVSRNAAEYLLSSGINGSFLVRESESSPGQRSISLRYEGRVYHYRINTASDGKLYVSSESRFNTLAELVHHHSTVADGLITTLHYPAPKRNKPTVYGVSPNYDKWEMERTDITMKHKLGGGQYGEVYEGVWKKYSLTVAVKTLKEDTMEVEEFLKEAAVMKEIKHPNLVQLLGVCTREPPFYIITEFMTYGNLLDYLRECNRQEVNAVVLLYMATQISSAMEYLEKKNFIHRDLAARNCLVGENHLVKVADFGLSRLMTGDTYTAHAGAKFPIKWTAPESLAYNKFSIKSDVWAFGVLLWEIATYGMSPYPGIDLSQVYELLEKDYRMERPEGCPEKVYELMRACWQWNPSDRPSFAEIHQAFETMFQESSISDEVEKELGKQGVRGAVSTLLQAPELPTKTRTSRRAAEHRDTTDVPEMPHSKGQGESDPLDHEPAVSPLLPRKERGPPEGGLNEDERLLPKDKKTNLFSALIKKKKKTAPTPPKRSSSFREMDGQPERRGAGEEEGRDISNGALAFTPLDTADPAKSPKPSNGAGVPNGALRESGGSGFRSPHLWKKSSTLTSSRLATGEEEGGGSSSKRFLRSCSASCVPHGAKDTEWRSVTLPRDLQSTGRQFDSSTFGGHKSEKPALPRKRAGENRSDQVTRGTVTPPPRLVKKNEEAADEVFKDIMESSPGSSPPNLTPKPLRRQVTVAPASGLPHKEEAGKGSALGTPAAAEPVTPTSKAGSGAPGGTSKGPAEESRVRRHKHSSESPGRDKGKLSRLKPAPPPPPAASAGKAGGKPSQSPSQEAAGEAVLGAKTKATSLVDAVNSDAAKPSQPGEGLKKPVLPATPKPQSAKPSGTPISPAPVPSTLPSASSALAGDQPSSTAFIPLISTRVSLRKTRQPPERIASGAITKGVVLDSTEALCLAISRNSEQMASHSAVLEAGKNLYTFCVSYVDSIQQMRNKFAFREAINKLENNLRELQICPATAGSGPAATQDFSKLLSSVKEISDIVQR
An outline of the steps:
as §1

In test [3] the target is T3, ~100 representative kinases (Homo sapiens, UniProt P15056).
T3 construct: Recombinant protein kinase domains with a concentration of 2 μM
T3 sequence (P15056 whole entry, the tested form may be a part): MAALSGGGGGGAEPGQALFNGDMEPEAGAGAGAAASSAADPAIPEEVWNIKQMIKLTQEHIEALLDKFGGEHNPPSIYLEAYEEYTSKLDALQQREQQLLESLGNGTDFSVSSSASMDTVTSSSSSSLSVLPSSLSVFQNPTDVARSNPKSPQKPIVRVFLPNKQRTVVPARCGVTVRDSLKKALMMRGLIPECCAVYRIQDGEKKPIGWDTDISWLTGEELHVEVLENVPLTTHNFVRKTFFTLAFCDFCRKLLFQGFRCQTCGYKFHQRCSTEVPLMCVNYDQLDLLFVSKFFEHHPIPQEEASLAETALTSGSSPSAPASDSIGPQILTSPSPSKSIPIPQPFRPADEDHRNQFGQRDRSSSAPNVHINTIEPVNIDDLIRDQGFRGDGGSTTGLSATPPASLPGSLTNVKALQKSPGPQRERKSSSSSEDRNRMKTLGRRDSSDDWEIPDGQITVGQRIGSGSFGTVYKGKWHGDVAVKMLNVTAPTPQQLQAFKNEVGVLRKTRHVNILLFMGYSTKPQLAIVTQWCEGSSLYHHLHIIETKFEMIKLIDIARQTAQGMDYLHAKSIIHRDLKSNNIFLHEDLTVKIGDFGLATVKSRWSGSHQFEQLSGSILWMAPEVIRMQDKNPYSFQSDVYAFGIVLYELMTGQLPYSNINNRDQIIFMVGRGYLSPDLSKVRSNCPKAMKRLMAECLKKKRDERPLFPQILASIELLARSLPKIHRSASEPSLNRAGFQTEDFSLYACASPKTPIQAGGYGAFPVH
The method, boiled down:
as §1

Test [4] concerns the target T4, ~100 representative kinases (Homo sapiens, UniProt P22830).
T4 construct: Recombinant protein kinase domains with a concentration of 2 μM
T4 sequence (P22830 55-423): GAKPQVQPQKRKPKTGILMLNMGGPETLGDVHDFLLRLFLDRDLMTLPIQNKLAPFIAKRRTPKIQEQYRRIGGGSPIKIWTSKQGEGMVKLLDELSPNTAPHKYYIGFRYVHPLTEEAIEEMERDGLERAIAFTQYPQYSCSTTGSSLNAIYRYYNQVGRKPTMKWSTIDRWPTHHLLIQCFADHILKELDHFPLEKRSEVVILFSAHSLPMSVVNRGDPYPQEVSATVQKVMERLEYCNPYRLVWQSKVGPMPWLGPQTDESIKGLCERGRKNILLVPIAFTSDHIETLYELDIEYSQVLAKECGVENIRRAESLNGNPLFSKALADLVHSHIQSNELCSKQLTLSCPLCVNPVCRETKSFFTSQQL
The settings on record: protein FECH; average of three replicates. The method, boiled down:
as §1

The target in test [5] is T5, ~100 representative kinases (Homo sapiens, UniProt P48730).
T5 construct: Recombinant protein kinase domains with a concentration of 2 μM
T5 sequence (P48730 whole entry, the tested form may be a part): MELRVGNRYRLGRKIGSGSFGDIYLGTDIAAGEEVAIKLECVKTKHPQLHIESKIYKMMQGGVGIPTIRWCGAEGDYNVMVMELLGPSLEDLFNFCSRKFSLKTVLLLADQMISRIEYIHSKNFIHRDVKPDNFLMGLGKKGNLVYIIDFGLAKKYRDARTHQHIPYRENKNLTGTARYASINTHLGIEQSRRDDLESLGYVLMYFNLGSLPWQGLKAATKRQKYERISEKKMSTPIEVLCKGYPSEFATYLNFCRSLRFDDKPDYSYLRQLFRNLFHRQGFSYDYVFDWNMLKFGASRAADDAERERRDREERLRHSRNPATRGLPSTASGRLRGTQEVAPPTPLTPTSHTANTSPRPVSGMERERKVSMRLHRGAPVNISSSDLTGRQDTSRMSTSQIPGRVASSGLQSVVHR
The settings on record: Protein CSNK1D; average of three replicates. The method, boiled down: as §1

The target of test [6] is T6, ~100 representative kinases (Homo sapiens, UniProt P51955).
T6 construct: Recombinant protein kinase domains with a concentration of 2 μM
T6 sequence (P51955 1-445): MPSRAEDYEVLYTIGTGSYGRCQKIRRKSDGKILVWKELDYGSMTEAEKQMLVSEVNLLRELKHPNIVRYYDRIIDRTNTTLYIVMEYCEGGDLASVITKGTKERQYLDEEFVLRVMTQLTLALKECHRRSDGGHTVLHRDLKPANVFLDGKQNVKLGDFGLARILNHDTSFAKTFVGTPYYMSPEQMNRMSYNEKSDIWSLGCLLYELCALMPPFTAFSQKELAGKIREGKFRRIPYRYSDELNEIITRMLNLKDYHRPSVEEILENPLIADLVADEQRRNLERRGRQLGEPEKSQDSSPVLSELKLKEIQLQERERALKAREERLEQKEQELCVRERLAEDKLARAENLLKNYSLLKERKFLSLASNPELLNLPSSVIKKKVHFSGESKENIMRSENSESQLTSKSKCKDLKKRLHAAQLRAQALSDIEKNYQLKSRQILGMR
The conditions noted are these: protein NEK2; average of three replicates. An outline of the steps:
as §1

For test [7], the target named is T7, ~100 representative kinases (Homo sapiens, UniProt Q00536).
T7 construct: Recombinant protein kinase domains with a concentration of 2 μM
T7 sequence (Q00536 whole entry, the tested form may be a part): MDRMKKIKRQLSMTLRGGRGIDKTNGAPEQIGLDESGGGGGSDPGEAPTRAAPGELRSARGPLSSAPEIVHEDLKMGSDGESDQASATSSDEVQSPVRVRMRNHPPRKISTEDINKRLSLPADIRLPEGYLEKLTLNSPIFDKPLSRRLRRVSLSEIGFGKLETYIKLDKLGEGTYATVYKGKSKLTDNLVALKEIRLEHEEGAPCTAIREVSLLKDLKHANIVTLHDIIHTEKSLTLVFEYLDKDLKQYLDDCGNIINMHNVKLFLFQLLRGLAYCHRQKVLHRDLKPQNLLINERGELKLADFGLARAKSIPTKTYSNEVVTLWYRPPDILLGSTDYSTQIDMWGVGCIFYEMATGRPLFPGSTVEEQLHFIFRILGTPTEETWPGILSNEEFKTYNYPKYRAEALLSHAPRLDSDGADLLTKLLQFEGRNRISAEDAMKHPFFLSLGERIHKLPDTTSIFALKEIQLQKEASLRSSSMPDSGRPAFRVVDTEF
The settings on record: protein PCTK1; average of three replicates. The method, boiled down: as §1

Test [8] addresses T8, ~100 representative kinases (Homo sapiens, UniProt Q13627).
T8 construct: Recombinant protein kinase domains with a concentration of 2 μM
The settings on record: Protein DYRK1A; average of three replicates. The method, boiled down:
as §1

The target in test [9] is T9, ~100 representative kinases (Homo sapiens, UniProt Q8TDX7).
T9 construct: Recombinant protein kinase domains with a concentration of 2 μM
T9 sequence (Q8TDX7 whole entry, the tested form may be a part): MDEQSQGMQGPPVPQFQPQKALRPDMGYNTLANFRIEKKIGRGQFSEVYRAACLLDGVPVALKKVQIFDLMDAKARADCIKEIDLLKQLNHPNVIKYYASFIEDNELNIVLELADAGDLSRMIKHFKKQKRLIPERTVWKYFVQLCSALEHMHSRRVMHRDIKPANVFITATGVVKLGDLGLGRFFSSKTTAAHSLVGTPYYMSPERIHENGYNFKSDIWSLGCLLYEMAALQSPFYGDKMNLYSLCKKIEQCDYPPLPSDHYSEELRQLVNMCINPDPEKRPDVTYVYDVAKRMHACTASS
The conditions noted are these: protein NEK7; average of three replicates. The method, boiled down:
as §1

In test [10] the target is T10, ~100 representative kinases (Homo sapiens, UniProt Q96NX5).
T10 construct: Recombinant protein kinase domains with a concentration of 2 μM
T10 sequence (Q96NX5 whole entry, the tested form may be a part): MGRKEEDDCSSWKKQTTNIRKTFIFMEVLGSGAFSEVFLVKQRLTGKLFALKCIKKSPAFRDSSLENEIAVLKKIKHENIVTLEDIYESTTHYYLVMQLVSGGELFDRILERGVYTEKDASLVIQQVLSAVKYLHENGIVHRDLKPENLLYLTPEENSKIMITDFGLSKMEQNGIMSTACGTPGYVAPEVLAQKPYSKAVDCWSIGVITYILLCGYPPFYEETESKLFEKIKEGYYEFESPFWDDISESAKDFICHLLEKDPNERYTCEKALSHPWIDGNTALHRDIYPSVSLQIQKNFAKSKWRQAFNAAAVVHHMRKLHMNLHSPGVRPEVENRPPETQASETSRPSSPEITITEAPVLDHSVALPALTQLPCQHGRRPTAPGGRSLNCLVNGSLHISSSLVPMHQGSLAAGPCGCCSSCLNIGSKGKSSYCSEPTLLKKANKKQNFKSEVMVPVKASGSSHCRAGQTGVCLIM
The conditions noted are these: Protein CAMK1G; average of three replicates. An outline of the steps:
as §1

For test [11], the target named is T11, ~100 representative kinases (Homo sapiens, UniProt Q96SB4).
T11 construct: Recombinant protein kinase domains with a concentration of 2 μM
T11 sequence (Q96SB4 whole entry, the tested form may be a part): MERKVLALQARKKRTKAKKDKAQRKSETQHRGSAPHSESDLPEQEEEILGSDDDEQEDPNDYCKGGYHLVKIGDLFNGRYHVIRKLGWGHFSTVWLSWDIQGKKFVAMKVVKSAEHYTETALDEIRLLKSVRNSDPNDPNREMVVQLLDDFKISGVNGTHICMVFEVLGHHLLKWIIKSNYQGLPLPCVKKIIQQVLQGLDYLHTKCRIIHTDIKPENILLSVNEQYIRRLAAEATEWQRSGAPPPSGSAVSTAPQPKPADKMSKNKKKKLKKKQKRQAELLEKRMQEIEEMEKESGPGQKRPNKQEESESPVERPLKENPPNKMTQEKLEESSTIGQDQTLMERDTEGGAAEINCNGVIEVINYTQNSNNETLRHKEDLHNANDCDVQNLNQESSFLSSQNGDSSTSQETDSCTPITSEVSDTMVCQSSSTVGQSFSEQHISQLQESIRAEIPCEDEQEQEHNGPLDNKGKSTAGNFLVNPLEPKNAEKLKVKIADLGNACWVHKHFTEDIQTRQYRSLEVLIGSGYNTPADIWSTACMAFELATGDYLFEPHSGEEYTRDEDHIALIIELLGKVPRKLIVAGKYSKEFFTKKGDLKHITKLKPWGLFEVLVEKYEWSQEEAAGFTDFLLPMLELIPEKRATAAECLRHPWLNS
The conditions noted are these: Protein SRPK1; DSF; average of three replicates. An outline of the steps:
as §1

Test [12] has as its target T12, ~100 representative kinases (Homo sapiens, UniProt Q99986).
T12 construct: Recombinant protein kinase domains with a concentration of 2 μM
T12 sequence (Q99986 1-396): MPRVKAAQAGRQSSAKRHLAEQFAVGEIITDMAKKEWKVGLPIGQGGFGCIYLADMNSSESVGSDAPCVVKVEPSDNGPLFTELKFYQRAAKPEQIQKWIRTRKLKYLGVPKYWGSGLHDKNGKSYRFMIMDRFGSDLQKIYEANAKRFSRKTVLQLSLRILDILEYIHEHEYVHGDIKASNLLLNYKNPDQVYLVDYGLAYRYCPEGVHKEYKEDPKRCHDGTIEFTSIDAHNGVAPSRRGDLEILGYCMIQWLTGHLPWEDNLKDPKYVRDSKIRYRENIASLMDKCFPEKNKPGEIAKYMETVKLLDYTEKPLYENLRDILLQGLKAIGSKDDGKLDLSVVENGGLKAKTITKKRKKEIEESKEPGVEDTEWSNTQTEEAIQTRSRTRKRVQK
The conditions noted are these: Protein VRK1; DSF; average of three replicates. An outline of the steps: as §1

In test [13] the target is T13, ~100 representative kinases (Homo sapiens, UniProt P49841).
T13 construct: Recombinant protein kinase domains with a concentration of 2 μM
T13 sequence (P49841 whole entry, the tested form may be a part): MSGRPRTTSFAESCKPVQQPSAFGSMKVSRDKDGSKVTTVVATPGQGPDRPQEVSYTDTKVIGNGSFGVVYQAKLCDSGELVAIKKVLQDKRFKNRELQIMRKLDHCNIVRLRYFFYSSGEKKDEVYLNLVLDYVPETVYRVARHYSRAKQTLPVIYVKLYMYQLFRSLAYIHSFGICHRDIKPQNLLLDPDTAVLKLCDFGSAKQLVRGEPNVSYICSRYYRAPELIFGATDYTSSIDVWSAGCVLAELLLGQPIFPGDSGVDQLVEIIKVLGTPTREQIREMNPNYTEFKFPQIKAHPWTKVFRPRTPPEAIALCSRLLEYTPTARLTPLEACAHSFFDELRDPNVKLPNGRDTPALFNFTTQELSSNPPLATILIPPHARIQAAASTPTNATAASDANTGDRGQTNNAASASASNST
The conditions noted are these: protein GSK3B; average of three replicates. The method, boiled down:
as §1

The mark [14] stands for this setting: Protein ABL1, average of three replicates.
Where [15] appears, read: Protein BRAF, average of three replicates.

Consider `Cc1ccc(-n2nc(C(C)(C)C)cc2NC(=O)Nc2cccc(-c3c[nH]c4ncnc(N5CCOCC5)c34)c2)cc1` [Compound 29], for which the dTm in [1] is 4.70 K; in test [2] (setting [14]) it was 10.07 K; in test [3] (setting [15]) it was 37.18 K; in [4], -10.48 K; in test [5], 0.95 K; in [6] it was -0.44 K. For the same compound, the dTm was 16.54 K in [7]; 2.14 K in test [8]; -0.81 K in test [9]; 3.88 K in test [10]; 11.63 K in test [11]; -0.55 K in test [12].

For the compound `Cc1ccc(-n2nc(C(C)(C)C)cc2NC(=O)Nc2cccc(-c3c[nH]c4nc(Cl)nc(N5CCOCC5)c34)c2)cc1` [Compound 30], the dTm in test [1] is listed as 2.39 K; in test [2] (setting [14]) it was 2.41 K; in test [3] (setting [15]), 18.85 K; in [4] it was -11.52 K; in [5] it was -2.91 K; in test [6], -0.71 K. The dTm is on record as 3.37 K in test [7]; -4.19 K in [8]; -1.05 K in [9]; -0.26 K in test [10]; 4.87 K in test [11]; -1.13 K in test [12].

As to `CC(=O)N1CCN(c2nc(Cl)nc3[nH]cc(-c4cccc(NC(=O)Nc5cc(C(C)(C)C)nn5-c5ccc(C)cc5)c4)c23)CC1` [Compound 31], the dTm in [1] was 2.84 K; in test [2] (setting [14]) it was 2.73 K; in test [3] (setting [15]) it was 4.38 K; in test [4] it was -9.46 K; in test [5], -0.88 K; in test [6], -1.71 K. Moreover, the dTm in test [7] was 5.50 K; in [8] it was -1.38 K; in test [9], -0.91 K; in test [10] it was 0.05 K; in test [11], 7.78 K; in [12] it was -1.18 K.

For `COc1cc(C(=O)N2CCOCC2)c(F)cc1Nc1nc(N(C)C)c2c(Cl)c[nH]c2n1` [Compound 36], the dTm in [1] was 2.56 K; in [2] (setting [14]), 1.16 K; in test [3] (setting [15]) it was -0.49 K; in test [4], -1.01 K; in test [5] it was 4.03 K; in test [6], -0.68 K. For the same compound, the dTm in [7] is reported as 0.43 K; in test [8], 3.71 K; in test [9], -0.65 K; in [10], 4.24 K; in test [11] it was 3.22 K; in test [12] it was -1.69 K.

With `COc1cc(S(C)(=O)=O)ccc1Nc1nc(N(C)C)c2c(Cl)c[nH]c2n1` [Compound 37], the dTm in [1] is -0.81 K; in test [2] (setting [14]), 0.38 K; in test [3] (setting [15]), 0.14 K; in test [4], -0.93 K; in test [5] it was 2.29 K; in test [6] it was -1.77 K. Moreover, the dTm in test [7] is reported as -0.043 K; in [8] it was 2.45 K; in test [9], -0.25 K; in [10], 1.99 K; in test [11] it was 0.39 K; in test [12] it was -0.55 K.

On to `CCNc1nc(Nc2cc(F)c(C(=O)N3CCOCC3)cc2OC)ncc1C(F)(F)F` [GNE-7915], for which the dTm was -0.22 K in [1]; 0.74 K in [2] (setting [14]); 1.48 K in test [3] (setting [15]); 1.81 K in test [5]; 3.70 K in [13]; 0.39 K in [6]. The dTm in test [7] is 0.61 K; in test [8], -0.0472 K; in test [9], 0.34 K; in test [10], 0.32 K; in test [11] it was 0.15 K; in [12], 0.12 K.

Regarding `Cc1ccc(C(=O)Nc2ccc(CN3CCN(C)CC3)c(C(F)(F)F)c2)cc1C#Cc1cnc2[nH]ncc2c1` [GZD-824, reference compound], the dTm in test [1] turned out to be 4.88 K; in test [2], 30.43 K; in test [3] it was 38.00 K; in test [5] it was 1.29 K; in [13], 4.71 K; in test [6], 0.45 K. Moreover, the dTm in [7] is listed as 3.06 K; in test [8], -2.15 K; in test [9], 1.00 K; in test [10], 0.14 K; in [11], 13.60 K; in test [12], 0.0366 K.

Take `C[C@@H]1CN(c2cc(-c3n[nH]c4ccc(OC5(C)CC5)cc34)ncn2)C[C@H](C)O1` [MLi2]: the dTm is reported as -0.41 K in test [1]; 0.50 K in test [2] (setting [14]); 0.50 K in test [3] (setting [15]); 0.66 K in test [5]; 0.56 K in test [13]; -0.21 K in test [6]. Also, the dTm is -0.14 K in test [7]; 0.53 K in test [8]; 0.03 K in test [9]; 3.50 K in [10]; 0.11 K in [11]; 0.11 K in test [12].

Turning to `Cn1cc(-c2c[nH]c3ncnc(N4CCOCC4)c23)cc1C#N` [PFE-360], the dTm in test [1] is reported as 0.37 K; in test [2] (setting [14]), 3.25 K; in test [3] (setting [15]) it was 2.10 K; in test [5], 0.63 K; in test [13], 5.50 K; in test [7] it was 0.35 K. For the same compound, the dTm in test [8] was 3.25 K; in [9] it was -0.13 K; in test [10], -0.81 K; in test [11], -0.23 K; in test [12], 0.0159 K.

For `Cc1ccc(C(=O)Nc2ccc(CN3CCN(C)CC3)c(C(F)(F)F)c2)cc1C#Cc1cnc2cccnn12` [Ponatinib, reference compound], the dTm in test [3] (setting [15]) is listed as 36.88 K; in [9], 0.07 K; in test [10], 1.16 K.

Regarding `CN[C@@H]1C[C@H]2O[C@@](C)([C@@H]1OC)n1c3ccccc3c3c4c(c5c6ccccc6n2c5c31)C(=O)NC4` [Staurosporine], the dTm is reported as 7.05 K in [1], 2.05 K in test [5], 4.25 K in test [6] and 7.17 K in [11].

For the origin of these results see article PMC12136037, “Type II kinase inhibitors that target Parkinson’s disease–associated LRRK2” (Science Advances, 2025).
